13 molecules from US7786142B2, “Heterocyclic compounds as pSTAT3/IL-6 inhibitors” (Orchid Research Laboratories, Ltd., priority 2005, dated 2010) can be followed below.

What all share (type): cell-based
Assay [1] deals with NCIH460 cells. Briefly: Anti-cancer screen (MTT), NCIH460 cells. The conditions noted are these: Homo sapiens, NCI-H460, NCIH460, 48 hours, concentrations tested 0.01-100 μM; for CC50: read-out: LC50 (the source's name). The protocol: (§1) Experimental drugs are screened for anti-cancer activity in three cell lines for their GI50, TGI and LC50 values (using five concentrations for each compound). The cell lines are maintained in DMEM containing 10% fetal bovine serum. 96 well micro titer plates are inoculated with cells in 100 μL for 24 hours at 37° C., 5% CO2, 95% air and 100% relative humidity. 5000 HCT116 cells/well, 5000 NCIH460 cells/well and 5000 U251 cells/well are plated. A separate plate with these cell lines is also inoculated to determine cell viability before the addition of the compounds (T0), (See Table I).
(§2) Following 24-hours incubation, experimental drugs are added to the 96 well plates. Each plate contains one of the above cell lines and the following in triplicate: five different concentrations (0.01, 0.1, 1, 10 and 100 μM) of four different compounds, appropriate dilutions of a cytotoxic standard and control (untreated) wells. Compounds are dissolved in DMSO to make 20 mM stock solutions on the day of drug addition and frozen at −20° C. Serial dilutions of these 20 mM stock solutions are made in complete growth medium such that 100 μL of these drug solutions in medium, of final concentrations equaling 0.01, 0.1, 1, 10 and 100 μM can be added to the cells in triplicate. Standard drugs whose anti-cancer activity has been well documented and which are regularly used are Doxorubicin and SAHA, (See Table I).
(§3) For T0 measurement, 24 hours after seeding the cells, 10 μL of 3-(4,5-Dimethyl-2-thiazolyl)-2,5-diphenyl-2H-tetrazolium (MTT) solution per well is added and incubation carried out for 3 hours at 37° C., 5% CO2, 95% air and 100% relative humidity, protected from light. Cells incubated with compounds for 48 hours are treated similarly except with the addition of 20 μL MTT solution per well and a subsequent incubation under the same conditions. After 3 hours of MTT incubation, well contents are aspirated carefully followed by addition of 150 μL DMSO per well. Plates are agitated to ensure solution of the formazan crystals in DMSO and absorbance read at 570 nm, (See Table I).
(§4) Percent growth is calculated for each compound's concentration relative to the control and zero measurement wells (T0; viability right before compound addition). If a test well's O.D. value is greater than the T0 measurement for that cell line % Growth=(test−zero)/(control−zero)×100

For assay [2], the system named is HCT116 cells. As to the kind of experiment: Anti-cancer screen (MTT), HCT116 cells. The following applies: Homo sapiens, HCT-116, HCT116, 48 hours, concentrations tested 0.01-100 μM. The protocol:
as §1, §2, §3, §4

For assay [3], the system named is MDAMB-231/U 251. Briefly: Anti-cancer screen (MTT), MDAMB-231/U 251 cells. The following applies: MDAMB-231/U 251, 48 hours, concentrations tested 0.01-100 μM; for CC50: read-out: LC50 (the source's name). The protocol: as §1, §2, §3, §4
In assay [4] the test system is NCIH460, HCT116, MDAMB-231/U 251. Briefly: Anti-cancer screen, mean GI50 over the cell lines. The protocol:
as §1, §2, §3, §4

As for `O=[N+]([O-])c1ccc(CN2CCN(CC(O)COc3cccc4[nH]c5ccccc5c34)CC2)o1` (stereo not shown) [Example 26, 1-(9H-carbazol-4-yloxy)-3-{4-[(5-nitro-2-furyl)methyl]piperazin-1-yl}propan-2-ol], in assay [1], the GI50 turned out to be 2 µM, the IC (TGI) was determined as 22 µM and the CC50 was found to be 70 µM. In assay [2], this molecule returned a GI50 of 30 µM, an IC (TGI) of 48 µM and an LC50 (concentration for 50% net cell kill relative to T0) of 68 µM. Besides, in assay [3], it took 30 µM to inhibit growth by half (GI50), the IC (TGI) is 85 µM and the CC50 was greater than 100 µM. In assay [4], growth was halved (GI50) at 20.7 µM.
For the molecule `Cc1cc(C)nc(NCC(O)COc2cccc3[nH]c4ccccc4c23)n1` (stereo not shown) [Example 15, 1-(9H-carbazol-4-yloxy)-3-[(4,6-dimethylpyrimidin-2-yl)amino]propan-2-ol], in assay [1], the 50% growth inhibitory concentration (GI50) was greater than 100 µM, the IC (TGI) is greater than 100 µM and the CC50 is greater than 100 µM. For the same molecule, in assay [2], the GI50 was greater than 100 µM, the IC (TGI) is greater than 100 µM and the LC50 (concentration for 50% net cell kill relative to T0) was greater than 100 µM. For the same molecule, in assay [3], growth was halved (GI50) at 8 µM, the IC (TGI) was greater than 100 µM and the CC50 is greater than 100 µM. The GI50 in assay [4] came out at 8 µM.
For the molecule `OC(COc1cccc2[nH]c3ccccc3c12)CN1CCCC1` (stereo not shown) [Example 6, 1-(9H-carbazol-4-yloxy)-3-pyrrolidin-1-ylpropan-2-ol], in assay [1], it took 10 µM to inhibit growth by half (GI50), the IC (TGI) was 42 µM and the CC50 stood at 75 µM. In assay [2], this molecule returned a GI50 greater than 100 µM, an IC (TGI) greater than 100 µM and an LC50 (concentration for 50% net cell kill relative to T0) greater than 100 µM. In addition, in assay [3], the GI50 was greater than 100 µM, the IC (TGI) is greater than 100 µM and the CC50 was greater than 100 µM. Halving of growth in assay [4] (GI50) required 10.5 µM.
For `O=[N+]([O-])c1ccc(CN2CCN(CC(O)COc3cccc4[nH]c5ccccc5c34)CC2)s1` (stereo not shown) [Example 27, 1-(9H-carbazol-4-yloxy)-3-{4-[(5-nitro-2-thienyl)methyl]piperazin-1-yl}propan-2-ol], in assay [1], halving of growth (GI50) required 45 µM, the IC (TGI) came to 98 µM and the CC50 is greater than 100 µM. In assay [2], this molecule had a 50% growth inhibitory concentration (GI50) of 30 µM, an IC (TGI) of 60 µM and an LC50 (concentration for 50% net cell kill relative to T0) of 90 µM. Moreover, in assay [3], the GI50 turned out to be 2.8 µM, the IC (TGI) was 48 µM and the CC50 was greater than 100 µM. For the same molecule, in assay [4], the GI50 was 25.9 µM.
As to `OC(COc1cccc2[nH]c3ccccc3c12)CN1CCNCC1` (stereo not shown) [Example 3, 1-(9H-carbazol-4-yloxy)-3-piperazin-1-ylpropan-2-ol], in assay [1], it took 27 µM to inhibit growth by half (GI50), the IC (TGI) was 54 µM and the CC50 was determined as 80 µM. In assay [2], it took 7 µM to inhibit growth by half (GI50), the IC (TGI) was found to be 36 µM and the LC50 (concentration for 50% net cell kill relative to T0) was found to be 72 µM. Also, in assay [3], the GI50 was 55 µM, the IC (TGI) turned out to be 77 µM and the CC50 is greater than 100 µM. In assay [4], this molecule gave a GI50 of 29.7 µM.
Take `OC(COc1cccc2[nH]c3ccccc3c12)CN1CCN(Cc2ccc(F)c(F)c2)CC1` (stereo not shown) [Example 31, 1-(9H-carbazol-4-yloxy)-3-[4-(3,4-difluorobenzyl)piperazin-1-yl]propan-2-ol]: in assay [1], the GI50 is 35 µM, the IC (TGI) was found to be 90 µM and the CC50 came out at 65 µM. In assay [2], this molecule showed a GI50 of 38 µM, an IC (TGI) of 66 µM and an LC50 (concentration for 50% net cell kill relative to T0) of 92 µM. Also, in assay [3], the concentration for 50% growth inhibition (GI50) came out at 4 µM, the IC (TGI) worked out at 7 µM and the CC50 was determined as 10 µM. In assay [4], this molecule registered a GI50 of 25.7 µM.
Regarding `COc1cc(CN2CCN(CC(O)COc3cccc4[nH]c5ccccc5c34)CC2)cc(OC)c1` (stereo not shown) [Example 30, 1-(9H-carbazol-4-yloxy)-3-[4-(3,5-dimethoxybenzyl)piperazin-1-yl]propan-2-ol], in assay [1], the GI50 was determined as 30 µM, the IC (TGI) amounted to 60 µM and the CC50 is 90 µM. In assay [2], this molecule yielded a 50% growth inhibitory concentration (GI50) of 25 µM, an IC (TGI) of 72 µM and an LC50 (concentration for 50% net cell kill relative to T0) of 84 µM. In addition, in assay [3], growth was halved (GI50) at 2.5 µM, the IC (TGI) was 9 µM and the CC50 is 70 µM. Also, the GI50 in assay [4] was determined as 19.2 µM.
Take `COc1cc(NCC(O)COc2cccc3[nH]c4ccccc4c23)cc(OC)c1OC` (stereo not shown) [Example 8]: in assay [1], the GI50 was 15 µM, the IC (TGI) worked out at 45 µM and the CC50 turned out to be 75 µM. Moreover, in assay [2], the GI50 was found to be 5.8 µM, the IC (TGI) came to 22 µM and the LC50 (concentration for 50% net cell kill relative to T0) stood at 90 µM. Moreover, in assay [3], the GI50 was 5 µM, the IC (TGI) turned out to be 50 µM and the CC50 was greater than 100 µM. The molecule also gave a GI50 in assay [4] of 8.6 µM.
For the molecule `Cc1cccc2sc(NC(=O)CN3CCN(CC(O)COc4cccc5[nH]c6ccccc6c45)CC3)nc12` (stereo not shown) [Example 59, 2-{4-[3-(9H-carbazol-4-yloxy)-2-hydroxypropyl]-piperazin-1-yl}-N-(4-methyl-1,3-benzothiazol-2-yl)acetamide], the GI50 in assay [1] is 9.5 µM; in assay [2], greater than 100 µM; in assay [3], 47 µM; in assay [4] it was 28.2 µM. Further, the IC (TGI) in assay [1], in assay [2] and in assay [3] was greater than 100 µM throughout. The CC50 in assay [1] and in assay [3] was greater than 100 µM each time. Further, the LC50 (concentration for 50% net cell kill relative to T0) in assay [2] was greater than 100 µM.
For `Cc1csc(NC(=O)CN2CCN(CC(O)COc3cccc4[nH]c5ccccc5c34)CC2)n1` (stereo not shown) [Example 60, 2-{4-[3-(9H-carbazol-4-yloxy)-2-hydroxypropyl]-piperazin-1-yl}-N-(4-methyl-1,3-thiazol-2-yl)acetamide], in assay [1], the GI50 was found to be 24 µM, the IC (TGI) was 61 µM and the CC50 came out at 85 µM. In addition, in assay [2], halving of growth (GI50) required 26 µM, the IC (TGI) was 62 µM and the LC50 (concentration for 50% net cell kill relative to T0) turned out to be 100 µM. Besides, in assay [3], the GI50 was greater than 100 µM, the IC (TGI) is greater than 100 µM and the CC50 was greater than 100 µM. This molecule had a GI50 in assay [4] of 25 µM.
With `O=C(Cc1ccc(F)cc1)N1CCC(NCC(O)COc2cccc3[nH]c4ccccc4c23)CC1` (stereo not shown) [Example 66], the GI50 in assay [1] was 14 µM; in assay [2], 26 µM; in assay [3], 15 µM; in assay [4], 18.3 µM. Besides, the IC (TGI) in assay [1] is 54 µM; in assay [2], 49 µM; in assay [3], 48 µM. In addition, the CC50 in assay [1] turned out to be 79 µM; in assay [3], 77 µM. Also, in assay [2], the LC50 (concentration for 50% net cell kill relative to T0) was 84 µM.
In the case of `N#Cc1ccc(C(=O)N2CCC(NCC(O)COc3cccc4[nH]c5ccccc5c34)CC2)cn1` (stereo not shown) [Example 70, 1-(9H-carbazol-4-yloxy)-3-{[1-(6-cyanonicotine-3-carbonyl)piperidin-4-yl]amino}propan-2-ol], in assay [1], the GI50 amounted to 23 µM, the IC (TGI) stood at 50 µM and the CC50 stood at 78 µM. In assay [2], halving of growth (GI50) required 5 µM, the IC (TGI) stood at 23 µM and the LC50 (concentration for 50% net cell kill relative to T0) stood at 67 µM. In assay [3], halving of growth (GI50) required 3.5 µM, the IC (TGI) is 8.9 µM and the CC50 is 57 µM. Moreover, in assay [4], the GI50 was found to be 10.5 µM.
With `OC(CNc1nc2ccccc2[nH]1)COc1cccc2[nH]c3ccccc3c12` (stereo not shown) [Example 19, 1-(1H-Benzimidazol-2-ylamino)-3-(9H-carbazol-4-yloxy)propan-2-ol], in assay [1], the GI50 turned out to be 7.5 µM, the IC (TGI) worked out at 35 µM and the CC50 amounted to 70.5 µM. For the same molecule, in assay [2], the GI50 came to 27 µM, the IC (TGI) was found to be 52 µM and the LC50 (concentration for 50% net cell kill relative to T0) is 79 µM. Moreover, in assay [3], the GI50 is 51.5 µM, the IC (TGI) turned out to be 67 µM and the CC50 was found to be 85 µM. In addition, in assay [4], the GI50 worked out at 28.7 µM.
